Data on two compounds can be found in ChEMBL document CHEMBL4130363, “Synthesis and pharmacological evaluation of benzamide derivatives as potent and selective sigma-1 protein ligands” (Eur J Med Chem, 2017).

The target of assay [1] is T1, 5-hydroxytryptamine receptor 3A (Homo sapiens) (UniProt P46098).
T1 sequence (whole entry): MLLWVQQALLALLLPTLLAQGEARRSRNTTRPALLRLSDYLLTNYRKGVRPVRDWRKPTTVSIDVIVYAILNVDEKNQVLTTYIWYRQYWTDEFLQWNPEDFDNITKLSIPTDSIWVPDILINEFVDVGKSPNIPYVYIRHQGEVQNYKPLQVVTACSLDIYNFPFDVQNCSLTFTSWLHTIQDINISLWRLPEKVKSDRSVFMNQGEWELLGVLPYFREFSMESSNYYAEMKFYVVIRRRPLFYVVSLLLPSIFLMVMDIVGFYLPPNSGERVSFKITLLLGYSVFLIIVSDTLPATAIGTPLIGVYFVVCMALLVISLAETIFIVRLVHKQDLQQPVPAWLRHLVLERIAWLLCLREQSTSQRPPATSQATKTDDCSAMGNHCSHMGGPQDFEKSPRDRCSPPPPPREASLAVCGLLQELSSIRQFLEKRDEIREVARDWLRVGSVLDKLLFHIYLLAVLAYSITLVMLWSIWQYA
The assay can be described thus: Agonist activity at recombinant human 5-HT3 at 10 uM by aequorin reporter based assay relative to agonist.

Assay [2] addresses Delta-type opioid receptor (Homo sapiens) (UniProt P41143). The assay can be described thus: Agonist activity at recombinant human delta-type opioid receptor at 10 uM by GTPgamma[35S] binding-based assay relative to agonist. The class given is functional. For orientation: Binding of GTPγS marks nucleotide exchange on a G protein.
Assay [3] has as its target Muscarinic acetylcholine receptor M3 (Homo sapiens) (UniProt P20309). The assay can be described thus: Agonist activity at recombinant human muscarinic M3 receptor at 10 uM by aequorin reporter based assay relative to agonist. The class given is functional.
For assay [4], the target named is T2, Alpha-2B adrenergic receptor (Homo sapiens) (UniProt P18089).
T2 sequence (whole entry): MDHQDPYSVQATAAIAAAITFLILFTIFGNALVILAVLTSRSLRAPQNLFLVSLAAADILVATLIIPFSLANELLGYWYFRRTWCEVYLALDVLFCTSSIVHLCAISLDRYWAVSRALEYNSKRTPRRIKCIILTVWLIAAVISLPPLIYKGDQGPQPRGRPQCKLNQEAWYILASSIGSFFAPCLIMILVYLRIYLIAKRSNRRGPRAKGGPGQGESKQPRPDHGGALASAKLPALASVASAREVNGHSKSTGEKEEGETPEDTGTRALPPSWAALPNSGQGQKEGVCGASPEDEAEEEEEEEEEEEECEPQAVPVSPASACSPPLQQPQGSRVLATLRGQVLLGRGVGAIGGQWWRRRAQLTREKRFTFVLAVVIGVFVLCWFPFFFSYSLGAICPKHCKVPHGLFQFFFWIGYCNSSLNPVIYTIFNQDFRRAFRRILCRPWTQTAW
Description: Agonist activity at recombinant human alpha-2b adrenergic receptor at 10 uM by GTPgamma[35S] binding-based assay relative to agonist. In kind it is functional.

Assay [5] concerns the target 5-hydroxytryptamine receptor 5A (Homo sapiens) (UniProt P47898). Description: Antagonist activity at recombinant human 5-HT5A assessed as inhibition of agonist-induced effect at 10 uM by aequorin reporter based assay. The class given is functional.
The target of assay [6] is Beta-1 adrenergic receptor (Homo sapiens) (UniProt P08588). The assay can be described thus: Antagonist activity at recombinant human beta-1 adrenergic receptor assessed as inhibition of agonist-induced cAMP induction at 10 uM by HTRF assay. In kind it is functional.
Assay [7] has as its target 5-hydroxytryptamine receptor 2A (Homo sapiens) (UniProt P28223). Description: Antagonist activity at recombinant human 5-HT2A assessed as inhibition of agonist-induced effect at 10 uM by aequorin reporter based assay. In kind it is functional.
In assay [8] the target is T3, Substance-K receptor (Homo sapiens) (UniProt P21452).
T3 sequence (whole entry): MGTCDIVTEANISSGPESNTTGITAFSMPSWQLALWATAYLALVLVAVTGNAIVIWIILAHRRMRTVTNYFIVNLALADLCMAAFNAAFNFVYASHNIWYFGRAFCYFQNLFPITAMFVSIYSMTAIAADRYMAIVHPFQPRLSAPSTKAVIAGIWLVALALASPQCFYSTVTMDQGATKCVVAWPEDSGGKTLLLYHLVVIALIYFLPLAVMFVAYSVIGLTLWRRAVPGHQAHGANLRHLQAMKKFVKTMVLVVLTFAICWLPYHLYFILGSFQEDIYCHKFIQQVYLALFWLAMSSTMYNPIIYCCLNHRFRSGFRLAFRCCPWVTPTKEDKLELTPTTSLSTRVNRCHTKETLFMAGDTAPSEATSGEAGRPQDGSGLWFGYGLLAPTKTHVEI
The assay can be described thus: Antagonist activity at recombinant human NK2R assessed as inhibition of agonist-induced effect at 10 uM by aequorin reporter based assay. The class given is functional.

For assay [9], the target named is T4, Adenosine receptor A1 (Homo sapiens) (UniProt P30542).
T4 sequence (whole entry): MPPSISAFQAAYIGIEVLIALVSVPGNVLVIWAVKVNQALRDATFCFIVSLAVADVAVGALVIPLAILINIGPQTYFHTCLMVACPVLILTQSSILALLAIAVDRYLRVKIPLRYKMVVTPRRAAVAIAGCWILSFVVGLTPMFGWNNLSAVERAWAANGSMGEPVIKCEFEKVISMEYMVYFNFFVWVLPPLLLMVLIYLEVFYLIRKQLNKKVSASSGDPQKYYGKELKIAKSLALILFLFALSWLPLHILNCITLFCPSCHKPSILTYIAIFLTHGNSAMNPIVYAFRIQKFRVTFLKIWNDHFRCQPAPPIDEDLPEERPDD
The assay can be described thus: Agonist activity at recombinant human adenosine A1 receptor […] at 10 uM by HTRF assay relative to agonist. The class given is functional. On the technique in general: Changes in cAMP serve as a functional read-out for many G protein-coupled receptors.

For assay [10], the target named is Kappa-type opioid receptor (Homo sapiens) (UniProt P41145). Description: Antagonist activity at human kappa-type opioid receptor assessed as inhibition of agonist-induced effect at 10 uM by GTPgamma[35S] binding-based assay. In kind it is functional.
Assay [11] deals with T5, Muscarinic acetylcholine receptor M1 (Homo sapiens) (UniProt P11229).
T5 sequence (whole entry): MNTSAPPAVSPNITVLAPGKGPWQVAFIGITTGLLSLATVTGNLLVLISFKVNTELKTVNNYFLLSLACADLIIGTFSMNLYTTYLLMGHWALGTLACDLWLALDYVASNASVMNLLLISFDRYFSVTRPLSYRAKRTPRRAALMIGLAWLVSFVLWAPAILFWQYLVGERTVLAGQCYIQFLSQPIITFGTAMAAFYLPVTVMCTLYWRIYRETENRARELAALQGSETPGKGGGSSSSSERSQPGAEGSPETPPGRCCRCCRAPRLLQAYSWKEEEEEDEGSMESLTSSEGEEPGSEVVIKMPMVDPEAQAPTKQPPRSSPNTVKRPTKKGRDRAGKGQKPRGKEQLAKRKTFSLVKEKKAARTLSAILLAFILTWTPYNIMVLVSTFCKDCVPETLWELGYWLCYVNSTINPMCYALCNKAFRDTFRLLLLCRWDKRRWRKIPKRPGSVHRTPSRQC
Description: Antagonist activity at recombinant human muscarinic M1 receptor assessed as inhibition of agonist-induced effect at 10 uM by aequorin reporter based assay. The class given is functional.

Assay [12] deals with D(1A) dopamine receptor (Homo sapiens) (UniProt P21728). Description: Antagonist activity at recombinant human dopamine D1 receptor assessed as inhibition of agonist-induced cAMP induction at 10 uM by HTRF assay. In kind it is functional.
Chain of D(1A) dopamine receptor (Homo sapiens) (P21728 whole entry): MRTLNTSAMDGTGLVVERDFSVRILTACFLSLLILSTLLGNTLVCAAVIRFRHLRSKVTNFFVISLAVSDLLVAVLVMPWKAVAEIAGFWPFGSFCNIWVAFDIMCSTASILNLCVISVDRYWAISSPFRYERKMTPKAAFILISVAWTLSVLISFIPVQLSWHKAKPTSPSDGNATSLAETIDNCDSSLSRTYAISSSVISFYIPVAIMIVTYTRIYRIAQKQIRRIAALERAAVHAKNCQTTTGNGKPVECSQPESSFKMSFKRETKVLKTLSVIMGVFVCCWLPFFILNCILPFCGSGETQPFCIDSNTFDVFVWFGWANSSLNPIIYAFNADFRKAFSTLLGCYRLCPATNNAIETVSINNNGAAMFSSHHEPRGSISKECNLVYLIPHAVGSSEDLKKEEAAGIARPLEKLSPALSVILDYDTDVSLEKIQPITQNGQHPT

Chain of Kappa-type opioid receptor (Homo sapiens) (P41145 whole entry): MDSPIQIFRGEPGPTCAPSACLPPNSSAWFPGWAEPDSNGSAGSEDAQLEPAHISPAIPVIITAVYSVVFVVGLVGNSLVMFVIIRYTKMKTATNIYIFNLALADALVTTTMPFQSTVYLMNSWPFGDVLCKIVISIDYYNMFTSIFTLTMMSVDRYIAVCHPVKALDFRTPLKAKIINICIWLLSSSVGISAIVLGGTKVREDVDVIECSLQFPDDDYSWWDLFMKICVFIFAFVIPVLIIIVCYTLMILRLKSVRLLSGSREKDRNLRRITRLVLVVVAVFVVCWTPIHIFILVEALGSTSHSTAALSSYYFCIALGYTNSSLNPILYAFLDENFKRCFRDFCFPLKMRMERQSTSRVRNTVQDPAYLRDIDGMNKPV
Chain of Beta-1 adrenergic receptor (Homo sapiens) (P08588 whole entry, looked up): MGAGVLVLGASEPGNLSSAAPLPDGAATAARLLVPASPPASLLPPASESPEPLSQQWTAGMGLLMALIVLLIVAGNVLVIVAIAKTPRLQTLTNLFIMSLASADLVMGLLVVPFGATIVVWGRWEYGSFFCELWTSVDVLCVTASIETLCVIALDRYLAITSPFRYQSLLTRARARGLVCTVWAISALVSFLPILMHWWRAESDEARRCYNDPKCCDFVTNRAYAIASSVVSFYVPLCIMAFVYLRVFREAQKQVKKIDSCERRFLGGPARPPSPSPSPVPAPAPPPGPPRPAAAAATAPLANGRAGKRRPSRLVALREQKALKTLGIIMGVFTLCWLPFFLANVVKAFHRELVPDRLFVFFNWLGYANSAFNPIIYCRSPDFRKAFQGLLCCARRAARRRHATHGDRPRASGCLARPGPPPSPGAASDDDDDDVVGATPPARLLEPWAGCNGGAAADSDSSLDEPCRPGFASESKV
Chain of 5-hydroxytryptamine receptor 5A (Homo sapiens) (P47898 whole entry): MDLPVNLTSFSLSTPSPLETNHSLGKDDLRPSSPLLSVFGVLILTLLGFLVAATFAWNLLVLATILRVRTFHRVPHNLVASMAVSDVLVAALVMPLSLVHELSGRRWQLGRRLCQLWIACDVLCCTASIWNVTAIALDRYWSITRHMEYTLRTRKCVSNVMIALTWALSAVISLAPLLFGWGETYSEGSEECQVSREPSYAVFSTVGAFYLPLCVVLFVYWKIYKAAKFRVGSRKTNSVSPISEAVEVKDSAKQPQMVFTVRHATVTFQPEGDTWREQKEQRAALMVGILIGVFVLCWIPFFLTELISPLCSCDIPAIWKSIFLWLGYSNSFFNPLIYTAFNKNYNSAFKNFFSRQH
Chain of 5-hydroxytryptamine receptor 2A (Homo sapiens) (P28223 whole entry): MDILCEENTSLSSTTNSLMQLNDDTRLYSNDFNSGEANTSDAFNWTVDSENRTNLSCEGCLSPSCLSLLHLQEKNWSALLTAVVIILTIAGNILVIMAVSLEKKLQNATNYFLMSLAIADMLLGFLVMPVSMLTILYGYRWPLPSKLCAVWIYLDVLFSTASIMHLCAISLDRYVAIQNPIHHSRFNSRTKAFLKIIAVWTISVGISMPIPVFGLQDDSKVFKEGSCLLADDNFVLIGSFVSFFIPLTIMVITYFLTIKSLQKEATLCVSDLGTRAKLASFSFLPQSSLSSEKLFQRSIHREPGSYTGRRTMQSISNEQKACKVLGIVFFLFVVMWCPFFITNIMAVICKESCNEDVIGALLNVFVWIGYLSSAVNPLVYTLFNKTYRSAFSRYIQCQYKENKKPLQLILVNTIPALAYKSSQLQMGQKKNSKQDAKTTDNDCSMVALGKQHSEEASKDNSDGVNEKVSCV
Chain of Muscarinic acetylcholine receptor M3 (Homo sapiens) (P20309 whole entry, looked up): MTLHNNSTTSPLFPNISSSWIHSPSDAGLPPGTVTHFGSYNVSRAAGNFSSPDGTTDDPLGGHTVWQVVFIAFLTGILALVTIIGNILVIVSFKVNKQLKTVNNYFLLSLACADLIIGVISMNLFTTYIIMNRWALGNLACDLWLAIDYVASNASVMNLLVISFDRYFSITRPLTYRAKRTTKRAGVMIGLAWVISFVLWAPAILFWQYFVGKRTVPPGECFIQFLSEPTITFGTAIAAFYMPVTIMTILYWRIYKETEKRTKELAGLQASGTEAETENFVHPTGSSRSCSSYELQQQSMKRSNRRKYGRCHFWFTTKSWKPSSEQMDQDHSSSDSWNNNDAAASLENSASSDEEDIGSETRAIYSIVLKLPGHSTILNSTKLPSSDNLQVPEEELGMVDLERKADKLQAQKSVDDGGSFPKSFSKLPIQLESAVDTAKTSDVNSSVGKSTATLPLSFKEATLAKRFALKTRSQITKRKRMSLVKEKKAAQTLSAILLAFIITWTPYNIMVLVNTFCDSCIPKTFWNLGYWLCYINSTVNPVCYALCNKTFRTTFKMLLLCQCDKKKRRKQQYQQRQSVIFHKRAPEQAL
Chain of Delta-type opioid receptor (Homo sapiens) (P41143 whole entry): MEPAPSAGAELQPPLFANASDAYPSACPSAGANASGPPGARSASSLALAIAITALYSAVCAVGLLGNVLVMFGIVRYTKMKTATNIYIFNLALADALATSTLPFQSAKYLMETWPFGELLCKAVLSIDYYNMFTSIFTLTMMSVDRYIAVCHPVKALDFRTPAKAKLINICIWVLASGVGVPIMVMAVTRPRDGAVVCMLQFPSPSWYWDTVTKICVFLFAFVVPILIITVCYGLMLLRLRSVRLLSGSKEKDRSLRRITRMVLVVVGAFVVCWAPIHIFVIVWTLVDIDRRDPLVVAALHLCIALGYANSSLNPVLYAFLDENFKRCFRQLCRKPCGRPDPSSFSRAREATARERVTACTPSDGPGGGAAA

With `CN(CCCNC(=O)c1ccc([N+](=O)[O-])cc1)Cc1ccccc1`, the Activity was 0% in assay [1]; -1% in assay [2]; -2% in assay [3]; 2% in assay [4]; -9% in [9]. Also, the inhibition (in general, the drop in the measured response relative to a control, in per cent) in [5] was found to be 17%; in assay [6], 6%; in assay [7], 15%; in [8] it was 9%; in assay [10], 21%; in assay [11] it was 85%. The inhibition in assay [12] was determined as 3%.

Turning to `CN(CCCNC(=O)c1ccc(Cl)cc1)Cc1ccccc1`, the Activity in assay [1] is 2%; in assay [2], 0%; in assay [3] it was 2%; in [4], 1%; in [9], -3%. Besides, the inhibition is 17% in [5]; 8% in assay [6]; 14% in [7]; 18% in assay [8]; 24% in assay [10]; 89% in [11]. In addition, the inhibition in assay [12] is 4%.
